Source: ChEMBL document CHEMBL4385641 (Bioorg Med Chem, 2019)

Legend:
Cannabinoid receptor 2 = Cannabinoid receptor 2 (Homo sapiens, UniProt P34972); assay: Displacement of [3H]-CP55940 from human CB2 receptor expressed in CHO cell membranes
[1] = Permeability across apical to basolateral side in MDCK-MDR1 cells at 10 uM incubated for 1 hr by mass spectrometric method; assay type: ADME, cell-based, Canis lupus familiaris; conditions: dog, mdck-mdr1, 1 h
Homo sapiens = species: Homo sapiens; assay: Selectivity ratio of Ki for displacement of [3H]-CP55940 from human CB2 receptor expressed in CHO cell membranes to Ki for displacement of [3H]-CP55940 from human CB1 receptor expressed in CHO cell membranes
Cannabinoid receptor 1 [2] = biological target: T1, Cannabinoid receptor 1 (Homo sapiens, UniProt P21554); assay: Inverse agonist activity at human CB1 receptor expressed in CHOK1 cells co-expressing Galphaq16 assessed as apparent equilibrium constant after 90 secs by […]-4 AM dye-based FLIPR assay; assay type: cell-based
Cannabinoid receptor 1 [3] = biological target: T1, Cannabinoid receptor 1; assay: Displacement of [3H]-CP55940 from human CB1 receptor expressed in CHO cell membranes
[4] = Half life in human liver microsomes at 1 uM by mass mass spectrometric method; assay type: ADME, Microsome; conditions: liver microsomes
[5] = Intrinsic clearance in human liver microsomes at 1 uM incubated for up to 120 mins by mass mass spectrometric method; assay type: ADME, Microsome; conditions: liver microsomes, read-out: CLH

T1 sequence (P21554 whole entry): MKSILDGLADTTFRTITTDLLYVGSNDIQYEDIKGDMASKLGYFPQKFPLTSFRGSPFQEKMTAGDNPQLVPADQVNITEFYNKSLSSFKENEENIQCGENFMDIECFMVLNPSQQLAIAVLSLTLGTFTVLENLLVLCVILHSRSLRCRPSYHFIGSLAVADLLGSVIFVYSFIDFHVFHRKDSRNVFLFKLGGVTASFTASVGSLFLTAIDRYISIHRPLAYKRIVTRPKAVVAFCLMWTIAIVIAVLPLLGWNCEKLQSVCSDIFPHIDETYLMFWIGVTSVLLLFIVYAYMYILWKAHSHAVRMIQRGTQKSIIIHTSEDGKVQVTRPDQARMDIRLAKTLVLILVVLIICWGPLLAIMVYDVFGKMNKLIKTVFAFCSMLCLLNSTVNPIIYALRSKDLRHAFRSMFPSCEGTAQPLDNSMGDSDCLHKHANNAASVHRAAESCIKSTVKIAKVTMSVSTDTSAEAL
Cannabinoid receptor 2, sequence (P34972 whole entry): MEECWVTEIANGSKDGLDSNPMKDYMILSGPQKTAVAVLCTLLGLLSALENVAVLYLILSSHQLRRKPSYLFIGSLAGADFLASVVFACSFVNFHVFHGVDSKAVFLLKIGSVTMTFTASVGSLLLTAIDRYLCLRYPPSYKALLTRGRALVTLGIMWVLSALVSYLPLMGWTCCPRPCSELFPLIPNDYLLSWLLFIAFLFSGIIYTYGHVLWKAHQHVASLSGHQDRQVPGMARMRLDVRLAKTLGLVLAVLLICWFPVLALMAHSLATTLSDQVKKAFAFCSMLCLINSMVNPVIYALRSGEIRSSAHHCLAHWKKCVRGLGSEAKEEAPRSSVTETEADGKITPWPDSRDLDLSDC

Compound	Ki (Cannabinoid receptor 2) [nM]	permeability [1] [%]	Ke(app) (Cannabinoid receptor 1 [2]) [nM]	Ki (Cannabinoid receptor 1 [3]) [nM]	half-life at 1 µM [4] [h]	microsomal CLint at 1 µM [5] [µL/min/mg]	Ratio Ki (Homo sapiens)
Clc1ccc(-n2c(-c3ccccc3Cl)nc3c(N4CCC(Nc5ccccc5)CC4)ncnc32)cc1	> 10000	0	1.4	6			> 1600
CN(Cc1ccc(F)cc1)C1CCN(c2ncnc3c2nc(-c2ccccc2Cl)n3-c2ccc(Cl)cc2)CC1			460				
O=C(NC1CCN(c2ncnc3c2nc(-c2ccccc2Cl)n3-c2ccc(Cl)cc2)CC1)OC1CCC1	1050		1	0.6			1800
O=C(NC1CCN(c2ncnc3c2nc(-c2ccccc2Cl)n3-c2ccc(Cl)cc2)CC1)OCC1COC1			77				
O=C(NC1CCN(c2ncnc3c2nc(-c2ccccc2Cl)n3-c2ccc(Cl)cc2)CC1)C1CCOC1 (stereo not drawn)			150				
O=C(CN1CCCCC1)NC1CCN(c2ncnc3c2nc(-c2ccccc2Cl)n3-c2ccc(Cl)cc2)CC1			220				
Clc1ccc(-n2c(-c3ccccc3Cl)nc3c(N4CCC(NCc5ccncc5)CC4)ncnc32)cc1			580				
Clc1ccc(-n2c(-c3ccccc3Cl)nc3c(N4CCC(NCc5ccccc5)CC4)ncnc32)cc1			150				
CC(C(=O)NC1CCN(c2ncnc3c2nc(-c2ccccc2Cl)n3-c2ccc(Cl)cc2)CC1)c1ccccc1 (stereo not drawn)	150	< 0.1	2	3			50
O=C(NC1CCN(c2ncnc3c2nc(-c2ccccc2Cl)n3-c2ccc(Cl)cc2)CC1)OCc1ccccc1	710		3	4			180
O=C(CC1CCOCC1)NC1CCN(c2ncnc3c2nc(-c2ccccc2Cl)n3-c2ccc(Cl)cc2)CC1			510				
O=C(NC1CCN(c2ncnc3c2nc(-c2ccccc2Cl)n3-c2ccc(Cl)cc2)CC1)OC1CCOCC1			320				
O=C(NC1CCN(c2ncnc3c2nc(-c2ccccc2Cl)n3-c2ccc(Cl)cc2)CC1)c1ccccn1			140				
O/N=C(\c1ccc(F)cc1)C1CCN(c2ncnc3c2nc(-c2ccccc2Cl)n3-c2ccc(Cl)cc2)CC1 (stereo in doubt; 20) [listing 1 of 2 here]	> 10000			5	1.1	19	
Fc1ccc(CNC2CCN(c3ncnc4c3nc(-c3ccccc3Cl)n4-c3ccc(Cl)cc3)CC2)cc1			210				
Cn1nnnc1CCC(=O)NC1CCN(c2ncnc3c2nc(-c2ccccc2Cl)n3-c2ccc(Cl)cc2)CC1			> 10000				
O/N=C(\c1ccc(F)cc1)C1CCN(c2ncnc3c2nc(-c2ccccc2Cl)n3-c2ccc(Cl)cc2)CC1 (stereo in doubt; 21)			21				> 1400
COCCOC(=O)NC1CCN(c2ncnc3c2nc(-c2ccccc2Cl)n3-c2ccc(Cl)cc2)CC1	> 5000	13	6	17			> 200

Compound	Ki (Cannabinoid receptor 2) [nM]	permeability [1] [%]	Ke(app) (Cannabinoid receptor 1 [2]) [nM]	Ki (Cannabinoid receptor 1 [3]) [nM]	half-life at 1 µM [4] [h]	microsomal CLint at 1 µM [5] [µL/min/mg]	Ratio Ki (Homo sapiens)
CC(C)(C)OCCC(=O)NC1CCN(c2ncnc3c2nc(-c2ccccc2Cl)n3-c2ccc(Cl)cc2)CC1	4900	20	1.7	6			820
Clc1ccc(-n2c(-c3ccccc3Cl)nc3c(N4CCC(Nc5ccncc5)CC4)ncnc32)cc1			100				
O=C(NC1CCN(c2ncnc3c2nc(-c2ccccc2Cl)n3-c2ccc(Cl)cc2)CC1)C1CCSCC1	1900		26	3			630
O=C(NC1CCN(c2ncnc3c2nc(-c2ccccc2Cl)n3-c2ccc(Cl)cc2)CC1)C1CCS(=O)(=O)CC1			> 10000				
COCCC(=O)NC1CCN(c2ncnc3c2nc(-c2ccccc2Cl)n3-c2ccc(Cl)cc2)CC1			370				
O/N=C(\c1ccc(F)cc1)C1CCN(c2ncnc3c2nc(-c2ccccc2Cl)n3-c2ccc(Cl)cc2)CC1 (stereo in doubt; 20) [listing 2 of 2 here]			20				> 2000
CCOCC(=O)NC1CCN(c2ncnc3c2nc(-c2ccccc2Cl)n3-c2ccc(Cl)cc2)CC1			240				
Clc1ccc(-n2c(-c3ccccc3Cl)nc3c(N4CCC(c5nc6ccccc6[nH]5)CC4)ncnc32)cc1	830		12				18
CC(C)(O)CC(=O)NC1CCN(c2ncnc3c2nc(-c2ccccc2Cl)n3-c2ccc(Cl)cc2)CC1			1700				
CCCCC(=O)NC1CCN(c2ncnc3c2nc(-c2ccccc2Cl)n3-c2ccc(C(F)(F)F)nc2)CC1	420	28	4	3			140
CN1CCC(COC(=O)NC2CCN(c3ncnc4c3nc(-c3ccccc3Cl)n4-c3ccc(Cl)cc3)CC2)CC1			1500				
O=C(CN1CCOCC1)NC1CCN(c2ncnc3c2nc(-c2ccccc2Cl)n3-c2ccc(Cl)cc2)CC1			1100				
O=C(CC1CCOC1)NC1CCN(c2ncnc3c2nc(-c2ccccc2Cl)n3-c2ccc(Cl)cc2)CC1 (stereo not drawn)			1000				
CN(Cc1ccccc1)C1CCN(c2ncnc3c2nc(-c2ccccc2Cl)n3-c2ccc(Cl)cc2)CC1	2700		34				64
O=C(NC1CCN(c2ncnc3c2nc(-c2ccccc2Cl)n3-c2ccc(C(F)(F)F)nc2)CC1)c1ccccc1	740	3	19	8			92
O=C(NC1CCN(c2ncnc3c2nc(-c2ccccc2Cl)n3-c2ccc(Cl)cc2)CC1)C1CCOCC1			440				
Clc1ccc(-n2c(-c3ccccc3Cl)nc3c(N4CCC(Nc5ncccn5)CC4)ncnc32)cc1			43				

Now from value to compound, other results behind:

Ki (Cannabinoid receptor 2) [nM]	permeability [1] [%]	Ke(app) (Cannabinoid receptor 1 [2]) [nM]	Ki (Cannabinoid receptor 1 [3]) [nM]	half-life at 1 µM [4] [h]	microsomal CLint at 1 µM [5] [µL/min/mg]	Compound	Ratio Ki (Homo sapiens)
> 10000		21	2.6			O=S(=O)(NC1CCN(c2ncnc3c2nc(-c2ccccc2Cl)n3-c2ccc(F)cc2)CC1)c1ccccc1F	> 3000
		92				O=C(NC1CCN(c2ncnc3c2nc(-c2ccccc2Cl)n3-c2ccc(Cl)cc2)CC1)OC1COC1	
400		0.5	4			O=S(=O)(NC1CCN(c2ncnc3c2nc(-c2ccccc2Cl)n3-c2ccc(C(F)(F)F)nc2)CC1)c1ccccc1F	100
> 10000		56	420			Cc1cc(-n2c(-c3ccccc3Cl)nc3c(N4CCC(NS(=O)(=O)c5ccc(F)c(F)c5)CC4)ncnc32)no1	> 20
190		0.7	1.6			O=S(=O)(NC1CCN(c2ncnc3c2nc(-c2ccccc2Cl)n3-c2ccc(OC(F)F)nc2)CC1)c1ccccc1F	120
		> 10000				Nc1ccc(-n2c(-c3ccccc3Cl)nc3c(N4CCC(NS(=O)(=O)c5ccc(F)c(F)c5)CC4)ncnc32)cn1	
> 6000		1	10			O=S(=O)(NC1CCN(c2ncnc3c2nc(-c2ccccc2Cl)n3-c2ccc(C(F)(F)F)nc2)CC1)c1ccc(F)c(F)c1	> 600
> 10000	0.1	2				O=S(=O)(NC1CCN(c2ncnc3c2nc(-c2ccccc2Cl)n3-c2ccc(Cl)cc2)CC1)c1ccc(F)cc1F	> 5000
		330				NC(=O)c1ccc(-n2c(-c3ccccc3Cl)nc3c(N4CCC(NS(=O)(=O)c5ccc(F)c(F)c5)CC4)ncnc32)cc1	
> 7000	< 0.1	1.2	2			O=C(NC1CCN(c2ncnc3c2nc(-c2ccccc2Cl)n3-c2ccc(Cl)cc2)CC1)c1ccc(F)cc1F	> 3500
		140				Cn1cc(-n2c(-c3ccccc3Cl)nc3c(N4CCC(NS(=O)(=O)c5ccc(F)c(F)c5)CC4)ncnc32)cn1	
		2700				CC(=O)Nc1ccc(-n2c(-c3ccccc3Cl)nc3c(N4CCC(NS(=O)(=O)c5ccc(F)c(F)c5)CC4)ncnc32)cn1	
10000	0.2	1.1	2			O=C(NC1CCN(c2ncnc3c2nc(-c2ccccc2Cl)n3-c2ccc(Cl)cc2)CC1)c1ccc(F)cc1	5000
		6000				CS(=O)(=O)CCC(=O)NC1CCN(c2ncnc3c2nc(-c2ccccc2Cl)n3-c2ccc(Cl)cc2)CC1	
5900	0.2	0.7	3			O=C(NC1CCN(c2ncnc3c2nc(-c2ccccc2Cl)n3-c2ccc(Cl)cc2)CC1)c1ccc(F)c(F)c1	2000
570	< 0.1	29	9			CCCCCS(=O)(=O)NC1CCN(c2ncnc3c2nc(-c2ccccc2Cl)n3-c2ccc(Cl)cc2)CC1	63
15		0.3	0.2			CC(C)(C)CC(=O)NC1CCN(c2ncnc3c2nc(-c2ccccc2Cl)n3-c2ccc(Cl)cc2)CC1	75
9000	0.1	1.1	3.3			O=S(=O)(NC1CCN(c2ncnc3c2nc(-c2ccccc2Cl)n3-c2ccc(Cl)cc2)CC1)c1ccc(F)cc1	> 2000
420	1	12	4			O=S(=O)(CCC(F)(F)F)NC1CCN(c2ncnc3c2nc(-c2ccccc2Cl)n3-c2ccc(Cl)cc2)CC1	105
> 10000	< 0.1	31	9			O=S(=O)(CC1CCCCC1)NC1CCN(c2ncnc3c2nc(-c2ccccc2Cl)n3-c2ccc(Cl)cc2)CC1	> 1100
		5000				O=S(=O)(NC1CCN(c2ncnc3c2nc(-c2ccccc2Cl)n3-c2cc(C(F)(F)F)[nH]n2)CC1)c1ccc(F)c(F)c1	
		120				Cn1ccc(-n2c(-c3ccccc3Cl)nc3c(N4CCC(NS(=O)(=O)c5ccc(F)c(F)c5)CC4)ncnc32)n1	
